# From patent publication US5710129A, “Inhibitors of SH2-mediated processes” (Ariad Pharmaceuticals, Inc., priority 1995, dated 1998)
# Several values for one entry are separate records, joined by “and”; a condition that tells them apart may be missing. Equal entries are not always repeated. Where two headings read alike, the source gives them in different places. Square brackets hold non-standard residues; d marks the D form. Peptide text beside a SMILES is read from it. * marks the point of attachment. Tyr(3,5-(NO2)2) = N[C@@H](Cc1cc([N+](=O)[O-])c(O)c([N+](=O)[O-])c1)C(=O)O; Acetyl(9-fluorenyl) = O=C(CC1c2ccccc2-c2ccccc21)*; Propanoyl(3,3-Ph2) = O=C(CC(c1ccccc1)c1ccccc1)*; Acetyl(1-naphthyl) = O=C(Cc1cccc2ccccc12)*; Acetyl(2-naphthyl) = O=C(Cc1ccc2ccccc2c1)*; 2Nal = N[C@@H](Cc1ccc2ccccc2c1)C(=O)O; Fmoc = O=C(OCC1c2ccccc2-c2ccccc21)*; Butanoyl(4-Ph) = O=C(CCCc1ccccc1)*; 2Naphthoyl = O=C(c1ccc2ccccc2c1)*; Hydrocinnamoyl = O=C(CCc1ccccc1)*; X1 = CC(CC(=O)*)c1ccccc1; PhAc = O=C(Cc1ccccc1)*
# Columns and labels:
# [1] = target: T1, pp72^syk (1-265) (Homo sapiens, UniProt P43405); assay: Tandem Syk competitive binding assay, surface plasmon resonance (BIAcore); conditions: for N,CSyk 1%/Min / IC50: 20 nM protein, γ-chain ITAM of human FcεRI as ligand; for IC50: read-out: N,CSyk IC-50
# T1 construct: Assays were run in HBS using 20 nM pp72^syk (1-265)
# Method: (§1) Binding was measured by competition using surface plasmon resonance (Malmqvist, M. (1993) Current Opinions in Immunology 5, 282-286) as implemented in the BIAcore Biosensor (Pharmacia Biosensor, Piscataway, N.J.). […] Results were compared to binding measured in the absence of competitor and expressed as percent inhibition. IC50values reflect the concentration of inhibitor required to reduce binding by 50%. Specifics of individual assays are described below. All asssays were run in HEPES Buffered Saline (HBS) composed of 10 mM HEPES (pH 7.4)/150 mM NaCl/3.4 mM EDTA/0.05% Surfactant P20at 25° C. and a flow rate of 5 uL min^-1.
# A pp72^syk peptide ligand corresponding to the γ-chain ITAM of human Fcε RI [DGVY(PO4)TGLSTRNQETY(PO4)ETLK] [SEQ ID NO:18] was synthesized as part of a larger peptide [Ac-CGGDGVY(PO4)TGLSTRNQETY-(PO4)ETLK-NH2] [SEQ ID NO:19] and used to generate a Syk-sensitive biosensor surface. Specifically, a Biosensor Chip CM5was activated with 200 mM ethyl-3-(3-dimethylaminopropyl)-carbodiimide hydrochloride (EDC)/50 mM N-hydroxysuccinimide (NHS) to generate a surface reactive to primary amines; treated with ethylenediamine to generate a surface rich in primary amines; activated with m-maleimidobenzoyl-N-hydroxysuccinimide ester (sulfo-MBS; 50 mM in 25 mM NaHCO3) to generate a surface reactive to free thiols; and the ITAM peptide immobilized through the N-terminal cysteine. Unreacted sites were blocked with β-mercaptoethanol and the chip cleaned of noncovalently bound peptide using 6M guanidine hydrochloride. Assays were run in HBS using 20 nM pp72^syk (1-265)±test inhibitor.
# [2] = target: T2, pp70^ZAP (1-259) (Homo sapiens, UniProt P43403); assay: Tandem ZAP competitive binding assay, surface plasmon resonance (BIAcore); conditions: for IC50: read-out: N,CZap IC-50
# T2 sequence (P43403 1-259): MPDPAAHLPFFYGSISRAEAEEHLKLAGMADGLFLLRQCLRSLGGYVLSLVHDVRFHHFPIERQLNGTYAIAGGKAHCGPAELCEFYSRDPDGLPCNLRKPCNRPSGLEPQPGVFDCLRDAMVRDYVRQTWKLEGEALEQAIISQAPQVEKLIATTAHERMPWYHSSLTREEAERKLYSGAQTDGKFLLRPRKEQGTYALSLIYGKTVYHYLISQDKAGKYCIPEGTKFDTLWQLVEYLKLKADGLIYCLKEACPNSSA
# Method: as §1
# A pp70^ZAP peptide ligand corresponding to the .zeta.-chain ITAM-1 of the human T-cell receptor [NQLY(PO4)NELNIGRREEY(PO4)DVLD] [SEQ ID NO:20] was synthesized as a part of a larger peptide [Ac-KGGNQLY(PO4)NELNIGRREEY-(PO4)DVLD-NH2 ] [SEQ ID NO:21] and used to generate a ZAP-sensitive biosensor surface. Specifically, a Biosensor Chip CM5was activated with 200 mM EDC/50 mM NHS to generate a surface reactive to primary amines and the ITAM peptide immobilized through the N-terminal lysine. Unreacted sites were blocked with ethanolamine (1M in water) and the chip cleaned of non-covalently bound peptide using 6M guanidine hydrochloride. Assays were run in HBS using 10 nM pp70^ZAP (1-259)±test inhibitor. (The designation "b22" indicates use of a corresponding γ-chain ITAM for the .zeta.-chain ITAM.)
# [3] = target: T3, pp60^src (144-251) (Homo sapiens, UniProt P12931); assay: Src competitive binding assay, surface plasmon resonance (BIAcore); conditions: for IC50: 270 nM protein, hamster Middle-T antigen phosphopeptide as ligand, read-out: Src IC-50
# T3 construct: Assays were run in HBS using 270 nM pp60^src (144-251)
# Method: as §1
# A p60^src peptide ligand corresponding to the hamster Middle-T antigen [QY(PO4)EEIPI] [SEQ ID NO:22] was synthesized as a part of a larger peptide [Ac-KGGQY(PO4)EEIPI-NH2 ] [SEQ ID NO:23] and used to generate a src-sensitive biosensor surface as described above for tandem ZAP. Assays were run in HBS using 270 nM pp60^src (144-251)±test inhibitor.
# [4] = target: T4, pp72^syk (163-265) (Homo sapiens, UniProt P43405); assay: C-Syk competitive binding assay, surface plasmon resonance (BIAcore); conditions: 270 nM protein; hemiphosphorylated γ-chain ITAM of human FcεRI as ligand; read-out: CSyk IC-50
# T4 construct: Assays were run in HBS using 270 nM pp72^syk (163-265)
# Method: as §1
# A pp72^syk peptide ligand corresponding to a hemiphosphorylated γ-chain ITAM of human Fcε RI [DGVY(PO4)TGLSTRNQETYETLK] was synthesized as part of a larger peptide [Ac-CGGDGVY(PO4)TGLSTRNQETYETLK-NH2 ] and used to generate a C-Syk-sensitive biosensor surface as described above for tandem syk. Assays were run in HBS using 270 nM pp72^syk (163-265)±test inhibitor.
# [5] = 10 nM protein, ζ-chain ITAM-1 of human T-cell receptor as ligand
# T3 sequence (P12931 144-251): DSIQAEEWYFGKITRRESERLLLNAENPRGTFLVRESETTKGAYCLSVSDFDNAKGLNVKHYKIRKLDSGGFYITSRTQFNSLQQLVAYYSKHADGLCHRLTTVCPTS
Compound,"IC50 [2, 5] [µM]",IC50 [3] [µM],IC50 [4] [µM],IC50 [1],further results
"CC(C)C[C@H](NC(=O)[C@@H](NC(=O)[C@H](CCC(=O)O)NC(=O)[C@H](Cc1cc([N+](=O)[O-])c(O)c([N+](=O)[O-])c1)NC(=O)Cc1ccc2ccccc2c1)[C@@H](C)O)C(N)=O ({Acetyl(2-naphthyl)}-[Tyr(3,5-(NO2)2)]ETL-NH2)",> 100,500,20,–,"N,CSyk percent inhibition ([1]; @ 50 (μM)): 30%"
"CC(C)C[C@H](NC(=O)CNC(=O)[C@@H](NC(=O)[C@H](Cc1cc([N+](=O)[O-])c(O)c([N+](=O)[O-])c1)NC(=O)OCC1c2ccccc2-c2ccccc21)[C@@H](C)O)C(N)=O [TGLNH2] (Fmoc-[Tyr(3,5-(NO2)2)]TGL-NH2)",–,–,–,–,"N,CSyk percent inhibition ([1]; @ 23 (μM)): 35%"
"CC(C)C[C@H](NC(=O)[C@@H](NC(=O)[C@H](CCC(=O)O)NC(=O)[C@H](Cc1cc([N+](=O)[O-])c(O)c([N+](=O)[O-])c1)NC(=O)CC(C)c1ccccc1)[C@@H](C)O)C(N)=O (stereo partly shown) (X1-[Tyr(3,5-(NO2)2)]ETL-NH2)",–,–,–,–,"N,CSyk 1%/Min [1]: 14 µM"
"CC(=O)N[C@@H](Cc1ccc2ccccc2c1)C(=O)N[C@@H](Cc1cc([N+](=O)[O-])c(O)c([N+](=O)[O-])c1)C(=O)N[C@@H](CCC(=O)O)C(=O)N[C@H](C(=O)N[C@@H](CC(C)C)C(N)=O)[C@@H](C)O (Ac-[2Nal][Tyr(3,5-(NO2)2)]ETL-NH2)",> 500,–,> 500,> 100 µM,–
"CC(C)C[C@H](NC(=O)[C@@H](NC(=O)[C@H](CCC(=O)O)NC(=O)[C@H](Cc1cc([N+](=O)[O-])c(O)c([N+](=O)[O-])c1)NC(=O)CC1c2ccccc2-c2ccccc21)[C@@H](C)O)C(N)=O ({Acetyl(9-fluorenyl)}-[Tyr(3,5-(NO2)2)]ETL-NH2)",> 100,710,26,50 µM,–
"CC(C)C[C@H](NC(=O)[C@H](CCC(=O)O)NC(=O)[C@H](CC(N)=O)NC(=O)[C@H](Cc1cc([N+](=O)[O-])c(O)c([N+](=O)[O-])c1)NC(=O)OCC1c2ccccc2-c2ccccc21)C(N)=O [NELNH2] (Fmoc-[Tyr(3,5-(NO2)2)]NEL-NH2)",–,–,–,–,"N,CSyk percent inhibition ([1]; @ 50 (μM)): 15%; N,CZap percent inhibition ([2]; @ 50 (μM)): 10%; Src percent inhibition ([3]; @ 50 (μM)): 5%"
"CC(C)C[C@H](NC(=O)[C@@H](NC(=O)[C@H](CCC(=O)O)NC(=O)[C@H](Cc1cc([N+](=O)[O-])c(O)c([N+](=O)[O-])c1)NC(=O)Cc1cccc2ccccc12)[C@@H](C)O)C(N)=O ({Acetyl(1-naphthyl)}-[Tyr(3,5-(NO2)2)]ETL-NH2)",> 100,> 1000,24,100 µM,–
"CC(C)C[C@H](NC(=O)[C@@H](NC(=O)[C@H](CCC(=O)O)NC(=O)[C@H](Cc1cc([N+](=O)[O-])c(O)c([N+](=O)[O-])c1)NC(=O)Cc1ccccc1)[C@@H](C)O)C(N)=O (PhAc-[Tyr(3,5-(NO2)2)]ETL-NH2)",> 1000,> 1000,70,> 1000 µM,–
"CC(C)C[C@H](NC(=O)[C@@H](NC(=O)[C@H](CCC(=O)O)NC(=O)[C@H](Cc1cc([N+](=O)[O-])c(O)c([N+](=O)[O-])c1)NC(=O)CC(c1ccccc1)c1ccccc1)[C@@H](C)O)C(N)=O ({Propanoyl(3,3-Ph2)}-[Tyr(3,5-(NO2)2)]ETL-NH2)",–,> 1000,15,100 µM,"N,CZap inhibition ([2]; @ 1000 (μM)): ni"
"CC(C)C[C@H](NC(=O)[C@@H](NC(=O)[C@H](CC(=O)O)NC(=O)[C@H](Cc1cc([N+](=O)[O-])c(O)c([N+](=O)[O-])c1)NC(=O)OCC1c2ccccc2-c2ccccc21)C(C)C)C(N)=O [DVLNH2] (Fmoc-[Tyr(3,5-(NO2)2)]DVL-NH2)",> 100,–,–,24 µM and 30 µM,Src percent inhibition ([3]; @ 100 (μM)): 25%
"CC(C)C[C@H](NC(=O)[C@@H](NC(=O)[C@H](CCC(=O)O)NC(=O)[C@H](Cc1cc([N+](=O)[O-])c(O)c([N+](=O)[O-])c1)NC(=O)CCc1ccccc1)[C@@H](C)O)C(N)=O (Hydrocinnamoyl-[Tyr(3,5-(NO2)2)]ETL-NH2)",> 100,410,11,460 µM,–
"CC(C)C[C@H](NC(=O)[C@@H](NC(=O)[C@H](CCC(=O)O)NC(=O)[C@H](Cc1cc([N+](=O)[O-])c(O)c([N+](=O)[O-])c1)NC(=O)OCC1c2ccccc2-c2ccccc21)[C@@H](C)O)C(N)=O [ETLNH2] (Fmoc-[Tyr(3,5-(NO2)2)]ETL-NH2)",350,> 1000,30,80 µM and 81 µM,IC50 ([2]; b22: corresponding γ-chain ITAM used for the ζ-chain ITAM): 20 µM
"CC(=O)N[C@H](Cc1ccccc1)C(=O)N[C@@H](Cc1cc([N+](=O)[O-])c(O)c([N+](=O)[O-])c1)C(=O)N[C@@H](CCC(=O)O)C(=O)N[C@H](C(=O)N[C@@H](CC(C)C)C(N)=O)[C@@H](C)O (Ac-[dF][Tyr(3,5-(NO2)2)]ETL-NH2)",> 100,500,50,–,–
"CC(=O)N[C@@H](Cc1ccccc1)C(=O)N[C@@H](Cc1cc([N+](=O)[O-])c(O)c([N+](=O)[O-])c1)C(=O)N[C@@H](CCC(=O)O)C(=O)N[C@H](C(=O)N[C@@H](CC(C)C)C(N)=O)[C@@H](C)O (Ac-F[Tyr(3,5-(NO2)2)]ETL-NH2)",> 1000,–,200,> 100 µM,–
"CC(C)C[C@H](NC(=O)[C@@H](NC(=O)[C@H](CCC(=O)O)NC(=O)[C@H](Cc1cc([N+](=O)[O-])c(O)c([N+](=O)[O-])c1)NC(=O)CCCc1ccccc1)[C@@H](C)O)C(N)=O ({Butanoyl(4-Ph)}-[Tyr(3,5-(NO2)2)]ETL-NH2; N-terminus assumed)",–,–,–,–,"N,CSyk 1%/Min [1]: 48 µM"
"CC(C)C[C@H](NC(=O)[C@@H](NC(=O)[C@H](CCC(=O)O)NC(=O)[C@H](Cc1cc([N+](=O)[O-])c(O)c([N+](=O)[O-])c1)NC(=O)c1ccc2ccccc2c1)[C@@H](C)O)C(N)=O (2Naphthoyl-[Tyr(3,5-(NO2)2)]ETL-NH2)",–,> 1000,35,380 µM,"N,CSyk 1%/Min [1]: 67 µM; N,CZap inhibition ([2]; @ 100 (μM)): ni"
